Data set [1] concerns HCT-116 MTAP-deleted tumors. The experiment in a line: Anti-tumor efficacy in HCT-116 MTAP-deleted mouse xenograft. The format is in vivo. The note with it: Day fourteen. Here is the method:
(§1) The effect of Compound A and Compound B as single-agent anti-tumor agents and in combination was assessed in the HCT-116 human colon tumor cell line, MTAP isogenic pair (MTAP proficient (WT) or MTAP-deleted). Cells were expanded in DMEM/F12 GlutaMAX (Fisher Scientific, Catalog Number 10-565-018) with 10% fetal bovine serum. These cells were free of mycoplasma and authenticated as HCT-116 by STR profiling. Two and a half million cells in log growth phase were resuspended in Hanks Balanced Salt Solution containing 50% Matrigel and implanted subcutaneously into the flank of each recipient female CB17/lcr-Prkd^scid/lcrlcoCrl mouse. Mice were housed in microisolator cages with corn cob bedding with additional enrichment consisting of sterile nesting material (Innovive) and Bio-huts (Bio-Serv). Water (Innovive) and diet (Teklad Global 19% Protein Extruded Diet 2919, Irradiated) were provided ad libitum. The environment was maintained on a 12-hour light cycle at approximately 68-72° F. and 40-60% relative humidity.
(§2) Tumor Volume (TV) was calculated using the following formula: TV (mm^3)=(width×width×length)/2. No dose holidays were provided for during the study and all mice were euthanized following the final dose on Day fourteen. Tumor growth inhibition (TGI) was calculated by [(TV controlfinal−TV treatedfinal)/(TV controlfinal−TV controlinitial)×100]. TV was analyzed for statistical significance utilizing GraphPad Prism version 9.1.0. Repeated Measures 2-Way ANOVA with Tukey's Multiple Comparisons was utilized, and P-values were presented from the final tumor measurement and were considered statistically significant if less than 0.05.
(§3) Mean tumor volume at dosing start was approximately 128-145 mm^3, with seven mice randomized to each treatment group. The study design was identical for both models, with the study consisting of six treatment groups. Mice were dosed orally, once per day, with Vehicle, Compound A at 5 mg/kg, Compound B at 9.375 or 18.75 mg/kg, or Compound A at 5 mg/kg and Compound B at 9.375 mg/kg, or Compound A at 5 mg/kg and Compound B at 18.75 mg/kg. The doses were staggered with Compound A given first and Compound B administered 2 hours later. Likewise, the Vehicle B (for Compound B, Saline) was administered to animals 2 hours later than the Vehicle A (for Compound A, 0.5% 400 cps methylcellulose with 0.5% Tween-80 in sterile water).

The subject of data set [2] is HCT-116 MTAP WT tumors. The experiment in a line: Anti-tumor efficacy in HCT-116 MTAP WT mouse xenograft. Type of data set: in vivo. The following applies: Day fourteen. Here is the method:
as §1, §2, §3

Data set [3] relates to BxPC-3 tumors. The data set is described as follows: Anti-tumor efficacy in pancreatic xenograft BxPC-3. The format is in vivo, mouse. The note with it: Day 28. Here is the method:
The BxPC-3 tumor cell line was maintained in vitro as a monolayer culture in RPMI 1640 medium supplemented with 10% fetal bovine serum at 37° C. in an atmosphere of 5% CO2 in air. The tumor cells were routinely sub-cultured, not to exceed 4-5 passages. The cells growing in an exponential growth phase were harvested and counted for tumor inoculation. Each mouse was inoculated subcutaneously on the right flank with 5 million BxPC-3 tumor cells in 0.1 mL RPMI 1640 and Matrigel mixture (1:1 ratio) for tumor development.
Tumor Volume (TV) was calculated using the following formula: TV (mm^3)=(width×width×length)/2. No dose holidays were provided for during the study and all mice were euthanized following the final dose on Day 28. Tumor growth inhibition (TGI) was calculated by [(TV controlfinal−TV treatedfinal)/(TV controlfinal−TV controlinitial)×100]. TV was analyzed for statistical significance using GraphPad Prism version 9.1.0. Repeated Measures 2-Way ANOVA with Tukey's Multiple Comparisons was utilized, and P-values were presented from the final tumor measurement and were considered statistically significant if less than 0.05. The treatment started when the mean tumor volume reached about 197 mm^3. Mice were then randomly assigned to respective groups so that the mean starting tumor volume was the same among groups. Mice were dosed orally, once per day, with Vehicle, Compound A at 10 mg/kg, Compound B at 9.375 or 18.75 mg/kg, or Compound A at 10 mg/kg and Compound B at 9.375 mg/kg, or Compound A at 10 mg/kg and Compound B at 18.75 mg/kg. The Doses were staggered with Compound A given first and Compound B administrated 2 hours later. Likewise, the Vehicle B (for Compound B, Saline) was administrated to animals 2 hours later than the Vehicle A (for Compound A, 0.5% 400 cps methylcellulose with 0.5% Tween-80 in sterile water).

The test system of data set [4] is NCI-H838 lung cancer line. The data set is described as follows: 5-day proliferation screening, combination synergy (HSA, Loewe, Bliss). The format is cell-based. The following applies: HSA and Loewe models, single agent activity of Compound B. As to the method: (§4) A 4-day proliferation screening was done in colorectal cancer lines HCT116 and HCT116 MTAP−/− (CRISPR Knock-out), and a 5-day proliferation screening was performed in pancreatic cancer cell lines BxPC3, KP4 and lung cancer line, NCI-H838. The nuclei were fluorescent tagged for all the cell lines. Combinations included a 5-fold titration from 10 uM for MAT2Ai (Compound A) and 5-fold titration from 20 uM for Type1 PRMTi (Compound B). Cells were plated at a seeding density 1000 cells/well in a 96-well format 24h before treatment and treated the following day with an 8×8 double matrix titration (five-fold dilution series) of Compound A (MAT2Ai) and Compound B (Type I PRMTi). Triplicates were run for each data point. Nuclear count was measured at the end point using the IncuCyte S3 Live-Cell Analysis System. Average fluorescence of cells treated with DMSO was set to 100% and the % viable cells were calculated accordingly. Dose response curves for single drug activity and drug-drug synergy for combinations were generated using Combenefit software. Synergy was evaluated using HSA, Loewe, and Bliss models.

Data set [5] has as its system KP4 pancreatic cancer cell line. The data set is described as above. Type of data set: cell-based. The note with it: HSA and Loewe models, single agent activity of Compound B. As to the method:
as §4

The mark [6] stands for this setting: Compound A 5 mg/kg orally once per day.
[7] abbreviates: Compound A 10 mg/kg orally once per day.
Where [8] appears, read: Compound B 9.375 mg/kg orally once per day.
[9] abbreviates: Compound B 18.75 mg/kg orally once per day.

Molecules are shown by their SMILES.

The results in this text go back to US20240269143A1, “COMBINATION THERAPY COMPRISING A MAT2A INHIBITOR AND TYPE I PRMT INHIBITOR” (IDEAYA BIOSCIENCES, INC., priority 2021, published 2024).

With `Nc1nc(=O)n(-c2ccccc2Cl)c2nc(C(F)(F)F)ccc12` [Compound A], the “Final TV (mean)” value in data set [1] (setting [6]) is recorded as 232 mm^3; in data set [2] (setting [6]), 539 mm^3; in data set [3] (setting [7]) it was 686 mm^3. Besides, the “TGI (tumor growth inhibition)” value in data set [1] (setting [6]) is 68%; in data set [2] (setting [6]) it was 56%; in data set [3] (setting [7]), 37%.

Consider `CCOCC1(COCC)CCC(c2n[nH]cc2CN(C)CCNC)CC1` [Compound B], for which the “Final TV (mean)” value in data set [1] (setting [8]) amounted to 441 mm^3; in data set [1] (setting [9]), 357 mm^3; in data set [2] (setting [8]), 928 mm^3; in data set [2] (setting [9]) it was 907 mm^3; in data set [3] (setting [8]), 638 mm^3; in data set [3] (setting [9]), 415 mm^3. For the same compound, the “TGI (tumor growth inhibition)” value in data set [1] (setting [8]) was found to be 4%; in data set [1] (setting [9]), 30%; in data set [2] (setting [8]), 13%; in data set [2] (setting [9]) it was 16%; in data set [3] (setting [8]), 44%; in data set [3] (setting [9]), 72%. Moreover, the figures for the “concentration of Compound B above which modest cytotoxicity observed” value in data set [4] and in data set [5] were “above 0.16 uM” and “above 0.8 uM”, respectively.
